# What was measured:
# Laodelphax striatellus = test: Insecticidal test on Laodelphax striatellus (rice seedling dip); assay type: in vivo; details: 192 h, rice seedlings dipped 30 seconds, 3rd-instar larvae, 8 days after inoculation, read-out: insecticidal efficacy (corrected mortality rate) activity level
# Source text: Insecticidal Test on Laodelphax striatellus
# The oxime group-containing quinoline compounds represented by the general formula (1) of the present invention or salts thereof were separately dispersed in water and diluted to 500 ppm. Rice plant seedlings (variety: Nihonbare) were dipped in the agrochemical dispersions for 30 seconds. After air-dried, each seedling was put into a separate glass test tube and inoculated with ten 3rd-instar larvae of Laodelphax striatellus, and then the glass test tubes were capped with cotton plugs. At 8 days after the inoculation, the numbers of surviving larvae and dead larvae were counted, the corrected mortality rate was calculated according to the formula shown below, and the insecticidal efficacy was evaluated according to the criteria shown below. Corrected mortality rate (%)=100×(Survival rate in a non-treatment plot−Survival rate in a treatment plot)/Survival rate in a non-treatment plot [Math. 2] Criteria A: the corrected mortality rate is 100%. B: the corrected mortality rate is 90 to 99%. C: the corrected mortality rate is 80 to 89%. D: the corrected mortality rate is 50 to 79%.
# Plutella xylostella = test: Insecticidal test on Plutella xylostella (dip of Chinese cabbage seedlings with laid eggs); assay type: in vivo; details: 144 h, seedlings with laid eggs dipped about 30 seconds, 25° C., 6 days after dip treatment, criteria of Test Example 2, read-out: insecticidal efficacy (corrected mortality rate) activity level
# Source text: Insecticidal Test on Plutella xylostella
# Adults of Plutella xylostella were released onto Chinese cabbage seedlings and allowed to lay eggs thereon. At 2 days after the release of the adults, the Chinese cabbage seedlings with laid eggs were dipped for about 30 seconds in agrochemical dispersions diluted to 500 ppm, each of which contained a different kind of oxime group-containing quinoline compound represented by the general formula (1) of the present invention as an active ingredient. After air-dried, the seedlings were kept in a thermostatic chamber at 25° C. At 6 days after the dip treatment, the number of hatched larvae per plot was counted, the mortality rate was calculated according to the formula shown below, and the insecticidal efficacy was evaluated according to the criteria of Test Example 2. This test was conducted in triplicate using 10 adults of Plutella xylostella per plot. Corrected mortality rate (%)=100×(Number of hatched larvae in a non-treatment plot−Number of hatched larvae in a treatment plot)/Number of hatched larvae in a non-treatment plot [Math. 3]
SMILES,mortality at 500 ppm (Laodelphax striatellus),mortality at 500 ppm (Plutella xylostella)
"CCS(=O)(=O)c1cc2cc(/C(C)=N/O)ccc2nc1-c1nc2cc(SC(F)(F)F)ccc2o1 [Compound 3-2, 1-(3-(ethylsulfonyl)-2-(5-(trifluoromethylthio)benzo[d]oxazol-2-yl)quinolin-6-yl)ethanone oxime]",100%,100%
"CCS(=O)(=O)c1cc2cc(/C=N/O)ccc2nc1-c1nc2cc(C(F)(F)F)cnc2n1C [Compound 1-1, (E)-3-(ethylsulfonyl)-2-(3-methyl-6-(trifluoromethyl)-3H-imidazo[4,5-b]pyridin-2-yl)quinoline-6-carbaldehyde oxime]",100%,100%
"CCS(=O)(=O)c1cc2ccc(/C=N/OCS(C)(=O)=O)cc2nc1-c1nc2cc(C(F)(F)F)cnc2n1C [Compound 2-25, 3-(ethylsulfonyl)-2-(3-methyl-6-(trifluoromethyl)-3H-imidazo[4,5-b]pyridin-2-yl)quinoline-7-carbaldehyde O-(methylsulfonylmethyl)oxime]",100%,100%
"CCS(=O)(=O)c1cc2cc(/C(C)=N/OCC(F)(F)F)ccc2nc1-c1nc2cc(SC(F)(F)F)ccc2o1 [Compound 3-8, 1-(3-(ethylsulfonyl)-2-(5-(trifluoromethylthio)benzo[d]oxazol-2-yl)quinolin-6-yl)ethanone O-(2,2,2-trifluoroethyl)oxime]",100%,100%
"CCS(=O)(=O)c1cc2ccc(/C=N/OC[S+](C)[O-])cc2nc1-c1nc2cc(C(F)(F)F)cnc2n1C (centres unmarked) [Compound 2-24, 3-(ethylsulfonyl)-2-(3-methyl-6-(trifluoromethyl)-3H-imidazo[4,5-b]pyridin-2-yl)quinoline-7-carbaldehyde O-(methylsulfinylmethyl)oxime]",100%,100%
"CCS(=O)(=O)c1cc2ccc(/C=N/OCSC)cc2nc1-c1nc2cc(C(F)(F)F)cnc2n1C [Compound 2-19, 3-(ethylsulfonyl)-2-(3-methyl-6-(trifluoromethyl)-3H-imidazo[4,5-b]pyridin-2-yl)quinoline-7-carbaldehyde O-(methylthiomethyl)oxime]",100%,100%
"CCS(=O)(=O)c1cc2cc(/C=N/OCC(F)(F)F)ccc2nc1-c1nc2cc(C(F)(F)F)cnc2n1C [Compound 1-7, (E)-3-(ethylsulfonyl)-2-(3-methyl-6-(trifluoromethyl)-3H-imidazo[4,5-b]pyridin-2-yl)quinoline-6-carbaldehyde O-(2,2,2-trifluoroethyl)oxime]",100%,100%
